We go through three molecules from patent publication US11517528B2, “Lipid membrane structure for delivery into siRNA cell” (NATIONAL UNIVERSITY CORPORATION HOKKAIDO UNIVERSITY, priority 2017, dated 2022).

A short description of series [1]: cationic lipid content in liver and spleen by LC/MS. The conditions noted are these: 1 mg siRNA/kg of LNP i.v., ICR mice; until 72 hours. Format: in vivo, mouse.
Experimental: 1 mg siRNA/kg of Each LNP was intravenously administered to ICR mice (4 weeks old, female), the liver and spleen were recovered over time, and each cationic lipid was quantitatively determined by LC/MS.
For series [2], the system named is HeLa cells stably expressing dual-luciferase (HeLa-dluc). The experiment in a line: in vitro knockdown activity, dual-luciferase assay. Format: cell-based. How it is done:
Hemolysis activity, in vitro knockdown activity, and in vivo F7 knockdown activity, which are indicators of endosome escape activity, were measured. Regarding the hemolysis activity, mouse erythrocytes and LNPs were mixed in a buffer solution adjusted to pH 6.5, the mixture was incubated at 37° C. for 30 minutes and then centrifuged, and an absorbance of the supernatant at 545 nm was measured. Hemolysis efficiency of each sample was calculated by respectively using a sample to which LNPs were not added and a sample to which Triton X-100 having a final concentration of 0.5% was added, as a negative control and a positive control. Regarding the in vitro knockdown activity, LNPs loaded with siRNA against luciferase were added to HeLa cells stably expressing dual-luciferase (HeLa-dluc) at various concentrations, and knockdown efficiency was calculated 24 hours after the addition by dual-luciferase assay. […] Regarding the in vivo F7 knockdown activity, 0.1 mg siRNA/kg of LNPs loaded with siRNA against F7 were intravenously administered to an ICR mouse (4 weeks old, female), and F7 enzyme activity in plasma was measured 24 hours after the administration. Each activity against pKa was plotted (FIG. 3).
The influence of hydrophobic scaffolds on siRNA introduction activity of small LNPs with an average particle diameter of about 35 nm was examined. […]

Each structure is given as a SMILES string. Where only a bound is given, the exact number is not on record here.

Regarding `CCCCC/C=C\C/C=C\CCCCCCCCOC1(OCCCCCCCC/C=C\C/C=C\CCCCC)CCN(C)CC1` [YSK05], in series [1], the “tissue content of cationic lipid in liver and spleen over time” value is recorded as “almost constant until 72 hours after the administration”. Regarding `CCCCC/C=C\C/C=C\CCCCCCCCC(O)(CCCCCCCC/C=C\C/C=C\CCCCC)CCCCOC(=O)C1CCN(C)CC1` [CL15A, (14Z,17Z)-5-Hydroxy-5-((9Z,12Z)-octadeca-9,12-dien-1-yl)tricosa-14,17-dien-1-yl 1-methylpiperidine-4-carboxylate], the luciferase knockdown efficiency in series [2] (30 nM siRNA, small LNPs, average particle diameter about 35 nm, HeLa-dluc) is given as not above 30%. Regarding `CCCCCCCC/C=C\CCCCCCCC(=O)OCCCCCCC(O)(CCCCCCOC(=O)CCCCCCC/C=C\CCCCCCCC)CCCCOC(=O)C1CCN(C)CC1` [CL15H6, 7-Hydroxy 7-(4-((1-methylpiperidine-4-carbonyl)oxy)butyl)tridecane-1,13-diyl dioleate], the “in vitro knockdown activity” value in series [2] (LNPs loaded with siRNA against luciferase, 24 hours, compared with CL15A) is “about three times higher activity than that of CL15A”.
